What was measured:
[1] = target: T1, dopamine transporter (^3 H-dopamine uptake) (Rattus norvegicus, UniProt P23977); assay: In vitro inhibition of ^3 H-dopamine (^3 H-DA) uptake in striatal synaptosomes; assay type: biochemical, rat (male Wistar); settings: ^3 H-DA 1 nM, 25 min at 37° C.
T1 construct: Corpi striati from male Wistar rats (150-200 g) are homogenized; from tissue; host or cells: P2 synaptosomes of corpus striatum, male Wistar rats
From the text: (§1) The compounds of the invention have also been tested for their ability to inhibit reuptake of dopamine(DA) noradrenalin(NA) and serotonin(5-HT) in synaptosomes.
(§2) Specific neurotransmitter transporters/uptake sites on nerve terminals presumably function to terminate neuronal signaling by removing the neurotransmitters dopamine, noradrenaline and serotonin, respectively, from the synaptic cleft. The activity of the transporter integral proteins can be measured in vitro by synaptosomal uptake of ^3 H-dopamine, ^3 H-noradrenaline and ^3 H-serotonine, respectively.
In vitro inhibition of ^3 H-dopamine (^3 H-DA) uptake in striatal synaptosomes
(§3) Tissue preparations: Preparations are performed at 0°-4° C. unless otherwise indicated. Corpi striati from male Wistar rats (150-200 g) are homogenized for 5-10 sec in 100 volumes of ice-cold 0.32M sucrose containing 1 mM pargyline using an Ultra-Turrax homogenizer. Monoamine oxidase activity will be inhibited in the presence of pargyline. The homogenate is centrifuged at 1000×g for 10 min. The resulting supermatant is then centrifuged at 27,000×g for 50 min and the supernatant is discarded. The pellet (P2) is resuspended in oxygenated (equilibrated with an atmosphere of 96% O2 : 4% CO2 for at least 30 min) Krebs-Ringer incubation buffer (8000 ml per g of original tissue) at pH 7.2 containing 122 mM NaCl, 0.16 mM EDTA, 4.8 mM KCl, 12.7 mM Na2 HPO4, 3.0 mM NaH2 PO4, 1.2 mM MgSO4, 1 mM CaCl2, 10 mM glucose and 1 mM ascorbic acid.
(§4) Assay: Aliquots of 4.0 ml tissue suspension are added to 100 μl of test solution and 100 μl of ^3 H-DA (1 nM, final concentration), mixed and incubated for 25 min at 37° C. Non-specific uptake is determined using benztropine (10 μM, final concentration). After incubation the samples are poured directly onto Whatman GF/C glass fibre filters under suction. […] The amount of radioactivity on the filters is determined by conventional liquid scintillation counting. Specific uptake is calculated as the difference between total uptake and non-specific uptake. […]

[2] = target: T2, ^3 H-noradrenaline uptake (noradrenaline transporter) (Rattus norvegicus, UniProt Q63380); assay: In vitro inhibition of ^3 H-noradrenaline (^3 H-NA) uptake in hippocampal synaptosomes; assay type: biochemical, rat (male Wistar); settings: ^3 H-NA 1 nM, 90 min at 37° C.
T2 construct: Hippocampi from male Wistar rats (150-200 g) are homogenized; from tissue; host or cells: P2 synaptosomes of hippocampus, male Wistar rats
T2 sequence (Q63380 1-617): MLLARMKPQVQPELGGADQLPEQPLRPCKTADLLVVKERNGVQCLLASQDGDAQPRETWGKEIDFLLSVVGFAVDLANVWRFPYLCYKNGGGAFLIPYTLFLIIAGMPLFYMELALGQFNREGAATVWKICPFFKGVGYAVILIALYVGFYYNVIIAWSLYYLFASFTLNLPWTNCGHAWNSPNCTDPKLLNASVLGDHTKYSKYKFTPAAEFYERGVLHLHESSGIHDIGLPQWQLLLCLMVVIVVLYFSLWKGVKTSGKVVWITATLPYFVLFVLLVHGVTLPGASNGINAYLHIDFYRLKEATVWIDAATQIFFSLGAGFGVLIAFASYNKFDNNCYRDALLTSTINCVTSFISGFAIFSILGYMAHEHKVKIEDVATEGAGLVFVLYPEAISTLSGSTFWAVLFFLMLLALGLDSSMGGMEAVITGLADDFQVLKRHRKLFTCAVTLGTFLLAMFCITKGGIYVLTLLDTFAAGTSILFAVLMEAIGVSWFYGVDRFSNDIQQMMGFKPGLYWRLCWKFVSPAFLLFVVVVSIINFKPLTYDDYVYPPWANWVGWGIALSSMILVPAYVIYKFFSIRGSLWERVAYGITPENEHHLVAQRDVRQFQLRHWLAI
From the text: as §1, §2
In vitro inhibition of ^3 H-noradrenaline (^3 H-NA) uptake in hippocampal synaptosomes
as §3, with “Tissue preparation:” for “Tissue preparations:”, “indicated. Hippocampi” for “indicated. Corpi striati”, “resulting supernatant” for “resulting supermatant”, “buffer (2000” for “buffer (8000”, “MgSO4, 0.97” for “MgSO4, 1”
as §4, with “H-NA” for “H-DA”, “90” for “25”, “desipramine (1” for “benztropine (10”

[3] = tested on: MPTP-induced Parkinsonism in Marmoset Monkeys; assay: Antagonism of MTPT-induced Parkinsonism in Marmoset Monkeys; assay type: in vivo, common marmoset; settings: MPTP-treated marmosets, oral gavage, 0.1 to 2.5 mg/kg; for locomotor activity: 10 h
From the text: Antagonism of MTPT-induced Parkinsonism in Marmoset Monkeys
Administration of MPTP (1-methyl-4-phenyl-1,2,3,6-tetrahydropyridine, hydrochloride) to monkeys induce a lesion of the dopaminergic system in the brain and gives rise to parkinsonian symptoms. By subsequent administration of test-compounds, the ability of the compounds to alleviate the parkinsonian signs can be tested.
Common marmosets (weighing 350-400 g, aged 3-5 years and of either sex) were used in the study. Animals were housed alone under standard conditions at a temperature of […] and 50% relative humidity using a 12 hour light-dark cycle. Animals had free access to food and Water.
Some months before locomotor or behavioural testing began, animals were treated with MPTP (1-methyl-4-phenyl-1,2,3,6-tetrahydropyridine, hydrochloride) dissolved in sterile 0.9% saline in doses of 2 mg/kg administered subcutaneously daily for 5 days or until a clear parkinsonian state developed. The cumulative doses administered ranged between 8-12 mg/kg. During MPTP treatment and throughout the following 2-3 weeks the animals were hand fed until they had recovered enough to be able to feed themselves.
Test compounds was dissolved in 100% Tween 80 with warming to 40°-50° C. and then diluted with water. Test compounds was given by oral gavage in a volume of 2 ml/kg. In addition test compound vehicle was administered on each experimental day for comparison with drug treatments. Each animal was treated with vehicle or one of the three doses of test compound over the following weeks, with a one week period of recovery between treatments.
Rating of disability: The disability of animals were scored as follows; alertness (normal 0, sleepy 2); reaction to stimuli (normal 0, reduced 1, slow 2, absent 3); checking movements (present 0, reduced 1, absent 2); attention and eye movements (normal 0, abnormal 1); posture (normal 0, abnormal trunk 1, abnormal limbs 1, abnormal tail 1, or grossly abnormal 4); balance/coordination (normal 0, impaired 1, unstable 2, spontaneous falls 3); vocalization (normal 0, reduced 1, absent 2).
Measurement of locomotor activity: Locomotor activity was measured simultaneously for four individual animals each in a metal cage (50 w×60 l×70 h cm) with transparent plastic doors (50 w×70 h cm) similar to the home cages but fitted with eight horizontally orientated infrared photocells. […] Locomotor counts were measured as the number of light beam interuptions which occured as the animals moved about. These movement counts were accumulated in 30 minutes intervals and recorded for the 10 h duration of experimentation.
Data analysis: The mean (±) s.e.m. was calculated for time courses and accumulated locomotor counts or behavioural disability scores for the different treatment groups.

[4] = tested on: stereotyped behaviour of the rat; assay: Abnormal stereotyped behaviour (side effect profile); assay type: in vivo; set-up: key to Activity (high intensity stereotypy): +: only stereotyped sniffing; ++: stereotyped sniffing and episodic licking; +++: continuous licking and/or biting gnawing
From the text: Side Effect Profile of the Compounds of the Present Invention
The side effects of cocaine and the central stimulant amphetamine derivatives involve central excitement and stimulation in animals including primates and these effects can also be observed in humans. A serious side effect of cocaine and of the amphetamine derivatives includes also the ability to provoke toxic psychotic symptoms closely resembling the mental disease schizophrenia and these include halucinations, paranoia and abnormal bizarre stereotyped mental activity and stereotypy.
The induction of stereotyped abnormal behavior in rodents thus also represents one of the most used animal models of schizophrenia in models for antipsychotic neuroleptic drugs (including haloperidol and chlorpromazine).
The development of toxic abnormal stereotyped amphetamine syndrome as described below may predict a toxic central stimulant side effect of dopamine releasing compounds in humans.
Classification of the Abnormal Stereotyped Behaviour
In general, the abnormal stereotyped behaviour after administration of amphetamine and cocaine-like central stimulant drugs can be classified into "low" and "high" intensity scores of stereotyped behaviour. […]

dopamine transporter [5] = target: T3, dopamine transporter (Rattus norvegicus, UniProt P23977); settings: background, in vitro, in words; cited from earlier work
T3 construct: Corpus striatum from male Wistar rats (150-200 g) is homogenized; from tissue; host or cells: corpus striatum of male Wistar rats
T3 sequence (P23977 whole entry): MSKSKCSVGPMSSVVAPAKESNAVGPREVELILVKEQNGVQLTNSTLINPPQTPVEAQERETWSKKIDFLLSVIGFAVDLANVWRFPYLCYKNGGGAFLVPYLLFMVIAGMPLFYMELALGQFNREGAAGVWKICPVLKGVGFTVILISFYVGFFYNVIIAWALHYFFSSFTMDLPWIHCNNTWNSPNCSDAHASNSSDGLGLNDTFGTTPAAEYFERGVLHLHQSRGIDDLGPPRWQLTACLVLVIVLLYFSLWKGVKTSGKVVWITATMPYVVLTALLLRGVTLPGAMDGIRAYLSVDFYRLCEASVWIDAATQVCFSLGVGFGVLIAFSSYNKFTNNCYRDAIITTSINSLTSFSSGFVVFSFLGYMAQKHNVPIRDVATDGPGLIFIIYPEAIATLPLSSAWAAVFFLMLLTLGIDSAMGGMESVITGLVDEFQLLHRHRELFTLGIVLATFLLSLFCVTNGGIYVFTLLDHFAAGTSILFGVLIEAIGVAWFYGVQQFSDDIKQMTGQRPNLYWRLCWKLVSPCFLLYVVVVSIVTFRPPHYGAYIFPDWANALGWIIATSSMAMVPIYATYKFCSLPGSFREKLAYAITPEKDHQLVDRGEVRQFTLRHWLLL

dopamine transporter [6] = target: dopamine transporter (Mus musculus, UniProt Q61327); settings: cited from earlier work
Chain of dopamine transporter (Mus musculus, UniProt Q61327) (Q61327 whole entry): as the sequence (P23977 whole entry) above, with S21P, A57V, A194S, H600R, L619V counted along it

[7] = target: T1, dopamine transporter (^3 H-dopamine uptake); settings: background, in words; cited from earlier work

T1 sequence (P23977 whole entry): as the sequence (P23977 whole entry) above

## CON=C[C@@H]1[C@@H](c2ccc(Cl)c(Cl)c2)C[C@@H]2CC[C@H]1N2C (single isomer, unassigned) [(1R,2R,3S)-3-(3,4-dichlorophenyl)-tropane 2-O-methyl-aldoxime, syn-isomere]
[1]
  IC50: 3.4 nM
[2]
  IC50: 1.5 nM

## CON=C[C@@H]1[C@@H](c2ccc(Cl)c(Cl)c2)C[C@@H]2CC[C@H]1N2C [NS2214, (1R,2R,3S)-3-(3,4-dichlorophenyl)tropane-2O-methyl-aldoxime]
[3]
  disability scores: dose-dependent decrease in disability scores
  locomotor activity: dose dependent increase in locomotor activity
[3]; listed as NS 2214
  locomotor activity: dose-dependent increase in locomotor activity
  disability scores: dose dependent decrease in disability scores
[4]; 15 mg/kg p.o.
  Activity (high intensity stereotypy): +++
[4]; p.o.
  lowest dosis giving the activity indicated (stereotypy +++): 15 mg/kg

## COC(=O)[C@H]1[C@@H](OC(=O)c2ccccc2)C[C@@H]2CC[C@H]1N2C [cocaine]
Dopamine transporter [5]
  binding to the dopamine transporter: binds to the dopamine transporter
Dopamine transporter [6]
  prevention of specific binding of ^3 H-WIN 35428 in vivo: partly or completely prevented
[7]
  inhibition of ^3 H-dopamine uptake: inhibits ^3 H-dopamine uptake

## COC(=O)[C@H]1[C@@H](c2ccc(F)cc2)C[C@@H]2CC[C@H]1N2C [^3 H-WIN 35428]
Dopamine transporter [5]
  binding to the dopamine transporter: binds selectively and with high affinity to the dopamine transporter complex
Dopamine transporter [6]; in vivo, iv
  time to maximum of specific binding in the striatum: 30 min

Source: US5736556A, “Tropane-2-aldoxime derivatives as nevro transmitter reuptake inhibitors” (NeuroSearch A/S, priority 1994, dated 1998)
